The values that follow come from patent US9321790B2, “Pyrimidinone derivatives as antimalarial agents” (SANOFI, priority 2012, dated 2016).

The target in one experiment is human PI3Kα (Homo sapiens (Human), UniProt P42336). Description: Human PI3Kα activity test (luciferin/luciferase ATP consumption, KinaseGlo). Conditions: PI3Kα (p110α/p85α), 50 μM PIP2, 2 μM ATP, 90 minutes; read-out: IC50 Human PI3Kα. The format is biochemical.
In experiment [1] the test system is Plasmodium falciparum (strain NF54). In words: Antimalarial activity test: growth of Plasmodium falciparum in infected human erythrocytes, 3H-hypoxanthine incorporation. The format is cell-based. Conditions: strain NF54 sensitive to chloroquine, 72 h total incubation. The procedure: The compounds according to the invention underwent pharmacological trials to determine their inhibitory effect on the growth of Plasmodium falciparum (strain NF54 sensitive to inhibition with chloroquine) in an in vitro test using infected human erythrocytes. The growth of the parasites is measured via the incorporation of tritiated hypoxanthine compared with the incorporation in the absence of drug. The tests are performed in 96-well microplates (Falcon™ 96-well microtiter plates, ref. No. 353072) in RPMI 1640 solutions (10.44 g/l) (without hypoxanthine) with HEPES (5.94 g/l), NaHCO3 (2.1 g/l), neomycin ([…])+AlbumaxR II (5 g/l) supplemented with human erythrocytes with a final hematocrit of 1.25% and a final parasitemia of 0.15%.
The stock solution of the compounds is prepared at 10 mg/mL in DMSO. For the test, fresh solutions at the desired concentrations are prepared in RPMI medium. For the test, 100 μl of compound are mixed with 100 μl of infected blood. For the determination of the IC50 values, the compounds are tested in twofold serial dilution.
The plates are incubated at 37° C. under a humid atmosphere with 93% N2, 4% CO2 and 3% O2. After 48 hours, 50 μl of ^3H-hypoxanthine (=0.5 μCi) in RPMI medium are added to each well and incubation is continued for a further 24 hours. Next, the plates are washed with distilled water and the cell lyzate is transferred onto fiberglass filters. The filters are dried and the radioactivity is determined by liquid scintillation. The results in cpm are converted into percentages of inhibition. The inhibitory activity is given by the concentration that inhibits 50% of the growth of the parasite relative to a control without compound.

Where [2] appears, read: Plasmodium falciparum, Erythrocyte.

human PI3Kα, sequence (P42336 whole entry): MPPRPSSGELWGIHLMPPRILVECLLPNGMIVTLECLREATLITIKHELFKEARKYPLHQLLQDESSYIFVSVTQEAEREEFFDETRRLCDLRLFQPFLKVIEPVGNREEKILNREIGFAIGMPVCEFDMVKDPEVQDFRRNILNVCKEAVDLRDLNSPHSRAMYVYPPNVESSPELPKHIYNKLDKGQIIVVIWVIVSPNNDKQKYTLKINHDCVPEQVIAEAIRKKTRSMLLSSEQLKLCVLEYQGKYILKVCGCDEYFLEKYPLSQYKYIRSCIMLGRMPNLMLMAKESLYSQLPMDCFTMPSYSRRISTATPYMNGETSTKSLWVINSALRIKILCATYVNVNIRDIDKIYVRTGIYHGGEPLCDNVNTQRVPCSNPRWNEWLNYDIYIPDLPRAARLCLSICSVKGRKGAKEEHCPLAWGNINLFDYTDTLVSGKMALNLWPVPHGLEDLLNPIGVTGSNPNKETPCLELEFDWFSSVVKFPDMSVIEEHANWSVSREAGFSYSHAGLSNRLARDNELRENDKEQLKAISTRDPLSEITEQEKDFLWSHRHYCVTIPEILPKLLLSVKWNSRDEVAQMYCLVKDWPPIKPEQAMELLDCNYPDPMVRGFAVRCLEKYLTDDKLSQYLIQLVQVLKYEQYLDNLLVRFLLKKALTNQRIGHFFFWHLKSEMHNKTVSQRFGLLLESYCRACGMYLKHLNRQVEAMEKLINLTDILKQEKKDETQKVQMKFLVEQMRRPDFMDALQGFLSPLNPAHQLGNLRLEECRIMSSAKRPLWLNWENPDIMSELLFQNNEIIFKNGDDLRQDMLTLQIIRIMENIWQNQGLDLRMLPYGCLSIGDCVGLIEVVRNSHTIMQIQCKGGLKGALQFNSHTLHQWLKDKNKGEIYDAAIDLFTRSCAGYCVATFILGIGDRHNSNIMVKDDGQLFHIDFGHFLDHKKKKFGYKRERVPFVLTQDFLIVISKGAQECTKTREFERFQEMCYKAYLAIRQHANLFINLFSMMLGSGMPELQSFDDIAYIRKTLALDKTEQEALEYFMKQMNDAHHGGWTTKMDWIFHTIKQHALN
human PI3Kα, sequence (P27986 whole entry partner): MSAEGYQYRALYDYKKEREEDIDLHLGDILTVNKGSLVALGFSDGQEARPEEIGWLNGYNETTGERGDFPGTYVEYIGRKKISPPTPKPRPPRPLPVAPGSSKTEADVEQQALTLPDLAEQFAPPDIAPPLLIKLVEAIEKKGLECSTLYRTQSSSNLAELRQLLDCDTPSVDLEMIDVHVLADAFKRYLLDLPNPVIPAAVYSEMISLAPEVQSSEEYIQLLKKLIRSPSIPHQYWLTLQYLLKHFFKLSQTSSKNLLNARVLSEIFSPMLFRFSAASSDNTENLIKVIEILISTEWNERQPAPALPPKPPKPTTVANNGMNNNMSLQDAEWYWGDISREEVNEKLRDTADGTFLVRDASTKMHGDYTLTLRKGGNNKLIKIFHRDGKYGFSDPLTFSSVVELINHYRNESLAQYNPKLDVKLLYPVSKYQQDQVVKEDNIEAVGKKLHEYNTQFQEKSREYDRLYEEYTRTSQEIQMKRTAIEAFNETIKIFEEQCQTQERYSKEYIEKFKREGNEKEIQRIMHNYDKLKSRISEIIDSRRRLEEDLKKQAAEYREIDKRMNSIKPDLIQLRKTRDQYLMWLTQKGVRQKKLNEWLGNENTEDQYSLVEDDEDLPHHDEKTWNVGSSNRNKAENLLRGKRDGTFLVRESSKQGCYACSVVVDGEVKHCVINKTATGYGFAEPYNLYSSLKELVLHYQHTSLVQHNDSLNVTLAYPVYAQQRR
Procedure for human PI3Kα: The test uses a luciferin/luciferase system to measure the concentration of ATP and its consumption during the enzymatic reaction.
After 90 minutes, the reaction is quenched by adding 20 μl/well of KinaseGlo reagent (Promega V6713). After 10 minutes in the dark, the luminescence is read using a PHERAStar microplate reader (reading at 0.8 sec/well).

As to `C[C@@]1(C(F)(F)F)Cn2c(nc(N3C[C@@H]4C[C@H]3CO4)cc2=O)N1CCc1ccc(N)cc1` [Compound 32, 1-[2-(4-Aminophenyl)ethyl]-2-methyl-7-(1S,4S)-2-oxa-5-azabicyclo[2.2.1]hept-5-yl-2-((S)-trifluoromethyl)-2,3-dihydro-1H-imidazo[1,2-a]pyrimidin-5-one], the IC50 came to 3700 nM on human PI3Kα and 4 nM in experiment [1].
Turning to `O=C(CN1c2nc(N3C[C@@H]4C[C@H]3CO4)cc(=O)n2CC[C@H]1C(F)(F)F)c1ccc(C(F)(F)F)nc1` [Compound 33, (8S)-2-(1S,4S)-2-Oxa-5-azabicyclo[2.2.1]hept-5-yl-9-[2-oxo-2-(6-trifluoromethylpyrid-3-yl)ethyl]-8-trifluoromethyl-6,7,8,9-tetrahydropyrimido[1,2-a]pyrimidin-4-one], the IC50 is over 10000 nM on human PI3Kα and 4000 nM in experiment [1].
For `CN(CCO)c1ccc(C(=O)CN2c3nc(N4C[C@@H]5C[C@H]4CO5)cc(=O)n3CC[C@H]2C(F)(F)F)cn1` [Compound 34, (8S)-9-(2-{6-[(2-Hydroxyethyl)methylamino]pyrid-3-yl}-2-oxoethyl)-2-(1S,4S)-2-oxa-5-azabicyclo[2.2.1]hept-5-yl-8-trifluoromethyl-6,7,8,9-tetrahydropyrimido[1,2-a]pyrimidin-4-one], the IC50 is over 10000 nM at human PI3Kα and over 200 nM in experiment [1] (setting [2]).
In the case of `CCOc1ccc(C(=O)CN2c3nc(N4C[C@@H]5C[C@H]4CO5)cc(=O)n3CC[C@H]2C(F)(F)F)cn1` [Compound 35, (8S)-9-[2-(6-Ethoxypyrid-3-yl)-2-oxoethyl]-2-(1S,4S)-2-oxa-5-azabicyclo[2.2.1]hept-5-yl-8-trifluoromethyl-6,7,8,9-tetrahydropyrimido[1,2-a]pyrimidin-4-one], the IC50 is over 10000 nM at human PI3Kα and over 210 nM in experiment [1] (setting [2]).
On to `Cc1c(C(=O)CN2c3nc(N4C[C@@H]5C[C@H]4CO5)cc(=O)n3CC[C@H]2C(F)(F)F)cnc(N)c1C` [Compound 36, (8S)-9-[2-(6-Amino-4,5-dimethylpyrid-3-yl)-2-oxoethyl]-2-(1S,4S)-2-oxa-5-azabicyclo[2.2.1]hept-5-yl-8-trifluoromethyl-6,7,8,9-tetrahydropyrimido[1,2-a]pyrimidin-4-one], for which the IC50 at human PI3Kα was over 10000 nM; in experiment [1] (setting [2]), 240 nM.
Consider `O=C(CN1c2nc(N3C[C@@H]4C[C@H]3CO4)cc(=O)n2CC[C@H]1C(F)(F)F)c1ccc(OC(F)F)cc1` [Compound 37, (S)-9-[2-(4-Difluoromethoxyphenyl)-2-oxoethyl]-2-(1S,4S)-2-oxa-5-azabicyclo[2.2.1]hept-5-yl-8-trifluoromethyl-6,7,8,9-tetrahydropyrimido[1,2-a]pyrimidin-4-one], for which the IC50 on human PI3Kα is over 10000 nM; in experiment [1] (setting [2]) it was 230 nM.
Consider `O=C(CN1c2nc(N3C[C@@H]4C[C@H]3CO4)cc(=O)n2CC[C@H]1C(F)(F)F)c1cnc2c(c1)OCCN2` [Compound 38, (8S)-9-[2-(3,4-dihydro-2H-pyrido[3,2-b][1,4]oxazin-7-yl)-2-oxoethyl]-2-(1S,4S)-2-oxa-5-azabicyclo[2.2.1]hept-5-yl-8-trifluoromethyl-6,7,8,9-tetrahydropyrimido[1,2-a]pyrimidin-4-one], for which the figures for the 50% inhibitory concentration (IC50) (on human PI3Kα; in experiment [1] (setting [2])) were 5770 nM and 140 nM, respectively.
`Cc1ncoc1C(=O)CN1c2nc(N3C[C@@H]4C[C@H]3CO4)cc(=O)n2CC[C@H]1C(F)(F)F` [Compound 39, (8S)-9-[2-(4-Methyloxazol-5-yl)-2-oxoethyl]-2-(1S,4S)-2-oxa-5-azabicyclo[2.2.1]hept-5-yl-8-trifluoromethyl-6,7,8,9-tetrahydropyrimido[1,2-a]pyrimidin-4-one]: the IC50 on human PI3Kα is over 10000 nM; in experiment [1] (setting [2]), 98 nM.
The like results for `O=C(CN1c2nc(N3C[C@@H]4C[C@H]3CO4)cc(=O)n2CC[C@H]1C(F)(F)F)c1ccc(F)c(F)c1` [Compound 40, (S)-9-[2-(3,4-Difluorophenyl)-2-oxoethyl]-2-(1S,4S)-2-oxa-5-azabicyclo[2.2.1]hept-5-yl-8-trifluoromethyl-6,7,8,9-tetrahydropyrimido[1,2-a]pyrimidin-4-one] were, in that order, over 10000 nM and 80 nM.
On to `O=C(CN1c2nc(N3C[C@@H]4C[C@H]3CO4)cc(=O)n2CC[C@H]1C(F)(F)F)c1ccc(N2CCOCC2)cc1` [Compound 41, (8S)-9-[2-(4-Morpholin-4-ylphenyl)-2-oxoethyl]-2-(1S,4S)-2-oxa-5-azabicyclo[2.2.1]hept-5-yl-8-trifluoromethyl-6,7,8,9-tetrahydropyrimido[1,2-a]pyrimidin-4-one], for which the IC50 is 4200 nM at human PI3Kα and 930 nM in experiment [1] (setting [2]).
Consider `N#Cc1ccc(C(=O)CN2c3nc(N4C[C@@H]5C[C@H]4CO5)cc(=O)n3CC[C@H]2C(F)(F)F)cc1` [Compound 42, 4-[2-((S)-8-(1S,4S)-2-Oxa-5-azabicyclo[2.2.1]hept-5-yl-6-oxo-2-trifluoromethyl-3,4-dihydro-2H,6H-pyrimido[1,2-a]pyrimidin-1-yl)acetyl]benzonitrile], for which the IC50 at human PI3Kα is over 10000 nM; in experiment [1] it was 80 nM.
As for `Cc1ncsc1C(=O)CN1c2nc(N3C[C@@H]4C[C@H]3CO4)cc(=O)n2CC[C@H]1C(F)(F)F` [Compound 43, (8S)-9-[2-(4-methylthiazol-5-yl)-2-oxoethyl]-2-(1S,4S)-2-oxa-5-azabicyclo[2.2.1]hept-5-yl-8-trifluoromethyl-6,7,8,9-tetrahydropyrimido[1,2-a]pyrimidin-4-one], the IC50 on human PI3Kα was over 10000 nM; in experiment [1] (setting [2]) it was 42 nM.
Take `O=C(CN1c2nc(N3C[C@@H]4C[C@H]3CO4)cc(=O)n2CC[C@H]1C(F)(F)F)c1cncc(Cl)c1` [Compound 44, (8S)-9-[2-(5-Chloropyrid-3-yl)-2-oxoethyl]-2-(1S,4S)-2-oxa-5-azabicyclo[2.2.1]hept-5-yl-8-trifluoromethyl-6,7,8,9-tetrahydropyrimido[1,2-a]pyrimidin-4-one]: the IC50 is over 10000 nM on human PI3Kα and 106 nM in experiment [1] (setting [2]).
With `COc1ccc(C(=O)CN2c3nc(N4C[C@@H]5C[C@H]4CO5)cc(=O)n3CC[C@H]2C(F)(F)F)cn1` [Compound 45, (8S)-9-[2-(6-methoxypyrid-3-yl)-2-oxoethyl]-2-(1S,4S)-2-oxa-5-azabicyclo[2.2.1]hept-5-yl-8-trifluoromethyl-6,7,8,9-tetrahydropyrimido[1,2-a]pyrimidin-4-one], the IC50 is over 10000 nM at human PI3Kα and 112 nM in experiment [1] (setting [2]).
The like results for `Cc1nocc1C(=O)CN1c2nc(N3C[C@@H]4C[C@H]3CO4)cc(=O)n2CC[C@H]1C(F)(F)F` [Compound 46, (8S)-9-[2-(3-Methylisoxazol-4-yl)-2-oxoethyl]-2-(1S,4S)-2-oxa-5-azabicyclo[2.2.1]hept-5-yl-8-trifluoromethyl-6,7,8,9-tetrahydropyrimido[1,2-a]pyrimidin-4-one] were, in that order, over 10000 nM and 398 nM.
On to `O=C(CN1c2nc(N3C[C@@H]4C[C@H]3CO4)cc(=O)n2CC[C@H]1C(F)(F)F)c1ccc2snnc2c1` [Compound 47, (8S)-9-(2-benzo[1,2,3]thiadiazol-5-yl-2-oxoethyl)-2-(1S,4S)-2-oxa-5-azabicyclo[2.2.1]hept-5-yl-8-trifluoromethyl-6,7,8,9-tetrahydropyrimido[1,2-a]pyrimidin-4-one], for which the IC50 at human PI3Kα is over 10000 nM; in experiment [1] (setting [2]) it was 13 nM.
The like results for `O=C(CN1c2nc(N3C[C@@H]4C[C@H]3CO4)cc(=O)n2CC[C@H]1C(F)(F)F)c1ccc(F)cc1F` [Compound 48, (8S)-9-[2-(2,4-difluorophenyl)-2-oxoethyl]-2-(1S,4S)-2-oxa-5-azabicyclo[2.2.1]hept-5-yl-8-trifluoromethyl-6,7,8,9-tetrahydropyrimido[1,2-a]pyrimidin-4-one] were, in that order, over 10000 nM and 27 nM.
For the molecule `CCC(O)(CC)CCN1c2nc(N3C[C@@H]4C[C@H]3CO4)cc(=O)n2CC[C@H]1C(F)(F)F` [Compound 49, (8S)-9-(3-ethyl-3-hydroxypentyl)-2-(1S,4S)-2-oxa-5-azabicyclo[2.2.1]hept-5-yl-8-trifluoromethyl-6,7,8,9-tetrahydropyrimido[1,2-a]pyrimidin-4-one], the results for the IC50 (at human PI3Kα; in experiment [1] (setting [2])) were 2740 nM and 6 nM, respectively.
`CC(C)(O)CCN1c2nc(N3C[C@@H]4C[C@H]3CO4)cc(=O)n2CC[C@H]1C(F)(F)F` [Compound 50, (8S)-9-(3-hydroxy-3-methylbutyl)-2-(1S,4S)-2-oxa-5-azabicyclo[2.2.1]hept-5-yl-8-trifluoromethyl-6,7,8,9-tetrahydropyrimido[1,2-a]pyrimidin-4-one]: the values for the IC50 (at human PI3Kα; in experiment [1] (setting [2])) were 4300 nM and 8 nM, respectively.
